# Assay results published in patent publication US10143696B2, “Methods and compositions for decreasing gastric emptying” (priority 2015, dated 2018).
# “Also recorded” adds a separate entry of the source. Read-outs that look alike come from different tables or passages of the source.
# Assays:
# [1] = type: in vivo, cynomolgus monkeys
# Description: Compound A (10-100 mg/kg) was administered orally to cynomolgus monkeys and blood specimens were collected prior to dose administration and at target time points of 0.5, 1, 3, 5, 8, and 24 hours post-dose administration. Blood was collected via the femoral vein into tubes containing tripotassium ethylene-diamine-tetraacetic acid (K3EDTA) as the anticoagulant. Whole blood was centrifuged to obtain plasma (9000×g for 10 minutes at 4° C.) which was transferred into labeled tubes and stored at −80° C. Plasma calibration standards, blanks, and study samples were processed by protein precipitation. To a 50 μL aliquot 150 μL of a 10 ng/mL solution of an internal standard and 150 μL of acetonitrile was added. The mixture was eluted using positive pressure and analyzed by liquid chromatography/mass spectrometry/mass spectrometry with m/z transition of 462-417. Compound A concentrations were calculated using area response ratios and a regression line constructed from the concentrations and peak area response ratios of the calibration standards. […]. The lower limit of quantification (LLOQ) for the plasma method is approximately 0.5 ng/mL and the upper limit of quantification (ULOQ) is approximately 1000 ng/mL extracted from plasma using a 50-μL aliquot of sample.
# As such, a pharmacokinetic and observational study was conducted in cynomologous monkeys (FIG. 16). Plasma concentrations of Compound A were measured following a single oral dose of 10, 50 and 100 mg/kg up to 24 hours post-dosing (FIGS. 16A, B and C).
# Sprague-Dawley rats = test: Gastric emptying of a test meal in rats; type: in vivo, rat
# Description: (§1) Rats were fasted overnight (16-18 hours) with free access to water. The next morning, compound was administered and animals were individually housed in bedding-free cages with pre-weighed food available ad libitum and access to water for 2 hours. The water and food were then removed and the remaining food was re-weighed. Gastric emptying of the ingested meal was assessed 4 hours later. Animals were euthanized by CO2 inhalation followed by thoracotomy. The abdominal cavity was opened, the pylorus and cardia were clamped and the stomach was removed. The excised stomach was weighed and then opened along the greater curvature, rinsed with tap water, lightly dried and re-weighed. The amount of food in the stomach (grams) was estimated based on the difference between the total weight of the stomach plus its contents and the weight of the stomach after the contents were removed. The meal ingested (food intake) was determined by the difference between pre- and post-feeding weight at the end of the 2 hour period. Gastric emptying during the 4 hour experiment is represented as: Gastric emptying=[1−(gastric content/food intake)]×100. Gastric Secretion
# Male, Sprague-Dawley rats (weighing between 229-264 g each and 4 rats per test group) were fasted overnight (19 hours). The rats were then orally administered 10 mg/kg, 30 mg/kg or 100 mg/kg of Compound A with a 0.5% MC or Capryol:Solutol:Polyethyleneglycol (CSP) vehicle or with a 0.5% MC or CSP vehicle alone. The rats were then placed in individual, bedding-free cages and allowed ad libitium access to pre-weighed food and water for two hours. The food and water were then removed and the food was reweighed. Gastric emptying was then assessed four hours later by euthanizing the rats and analyzing the stomach and stomach contents. […] Data are represented as the means+the standard error of the means (S.E.M). % Gastric Emptying in 4 hours=(1−(gastric content/food intake))×100. […] Data are represented as the means+S.E.M.
# Male, Sprague-Dawley rats (weighing between 235-268 g each and 4-6 rats per test group) were fasted overnight (19 hours). The rats were then subcutaneously administered 10 mg/kg, 30 mg/kg or 100 mg/kg of carbamazepine (Compound B) with a 25% HPBCD vehicle or with a 25% HPBCD vehicle alone. Some test animals were not dosed (i.e., naïve). The rats were then placed in individual, bedding-free cages and allowed ad libitium access to pre-weighed food and water for two hours. The food and water were then removed and the food was reweighed. […] Data are represented as the means+S.E.M. % Gastric Emptying in 4 hours=(1−(gastric content/food intake))×100.
# Male, Sprague-Dawley rats (weighing between 238-274 g each and 6 rats per test group) were fasted overnight (19 hours). The rats were then orally administered 30 mg/kg, 100 mg/kg or 300 mg/kg of carbamazepine (Compound B) with a 0.5% MC vehicle or with a 0.5% MC vehicle alone. The rats were then placed in individual, bedding-free cages and allowed ad libitium access to pre-weighed food and water for two hours. The food and water were then removed and the food was reweighed. […] Data are represented as the means+S.E.M. % Gastric Emptying in 4 hours=(1−(gastric content/food intake))×100.
# Male, Sprague-Dawley rats (weighing between 235-276 g each and 4-6 rats per test group) were fasted overnight (19 hours).
# CD1 mice = test: Gastric emptying of a test meal in mice; type: in vivo
# Description: as §1
# Male, CD1 mice (weighing between 30-36 g each and 6 mice per test group) were fasted overnight (19 hours). The mice then were subcutaneously administered 3 mg/kg of Compound A with a 25% HPBCD vehicle, a 25% HPBCD vehicle alone, orally administered 100 mg/kg of Compound A with a 0.5% MC vehicle, or a 0.5% MC vehicle alone. The mice were then placed in individual, bedding-free cages and allowed ad libitium access to pre-weighed food and water for two hours. The food and water were then removed and the food was reweighed. Gastric emptying was assessed four hours later by euthanizing the mice and analyzing the stomach and stomach contents. Data were analyzed using an unpaired t-test where *P<0.05 and ***P<0.001 and represented as the means+S.E.M. % Gastric Emptying in 4 hours=(1−(gastric content/food intake)×100).
# [2] = naïve rats, p.o. 100 mg/kg, 0.5% MC (Example 13)
# [3] = p.o. 10, 30, 100 mg/kg, 0.5% MC or CSP vehicle (Example 1)
# [4] = p.o. 100 mg/kg, 0.5% MC vehicle
structure (smiles),measurement,setting,value
C[C@H](Nc1cc(C(N)=O)nc(-c2ccc(Oc3ccc(OC(F)(F)F)cc3)cc2)n1)C(N)=O [Compound A],time up to which plasma concentration continued increasing,"[1]; monkey, p.o. 10 mg/kg",8 h
same,time up to which plasma concentration continued increasing,"[1]; monkey, p.o. 50 mg/kg and 100 mg/kg",24 h
same,plasma levels versus dose,"[1]; monkey, single oral dose of 10, 50 and 100 mg/kg",increased with increasing dose in an approximately linear fashion
same,plasma concentrations,"[1]; monkey, single oral dose of 10, 50 and 100 mg/kg, up to 24 hours",measurable at all doses
same,plasma level of the individual monkey presenting the highest plasma levels,"[1]; p.o., at 24 hrs",over 3000 ng/ml
same,% Gastric Emptying in 4 hours,"Sprague-Dawley rats; Compound A 3 mg/kg s.c. alone, 25% HPBCD (Examples 11, 12), 3 mg/kg",inhibits the percent of gastric emptying independently
same,gastric emptying,Sprague-Dawley rats; administered subcutaneously (Example 9),decrease in gastric emptying
same,gastric emptying inhibition potency of Compound A with a CSP vehicle compared to Compound D in 25% HPBCD,Sprague-Dawley rats; all dosages tested,maintains a greater gastric emptying inhibition potency as compared to Compound D
same,gastric emptying inhibition potency compared between compounds,"Sprague-Dawley rats; comparison at equal or similar dosages, routes and vehicles",greater gastric emptying inhibition potency than Compound B; also recorded: greater gastric emptying inhibition potency when compared to Compound B; also recorded: greater gastric emptying inhibition potency at lower dosages; also recorded: highest in vivo potency
same,gastric emptying,"Sprague-Dawley rats; lowest dose tested orally, 10 mg/kg",~0%
same,% Gastric Emptying in 4 hours,Sprague-Dawley rats; [2],statistically significant decrease in gastric emptying
same,stomach weight,Sprague-Dawley rats; [2],increase in stomach weight
same,% Gastric Emptying in 4 hours,Sprague-Dawley rats; [3],increased inhibition of gastric emptying
same,stomach weight,Sprague-Dawley rats; [3],increased stomach weight
same,"gastric emptying inhibition and stomach weight increase, CSP vehicle compared to 0.5% MC vehicle",Sprague-Dawley rats; p.o. 10-100 mg/kg (Example 1),greater inhibiting effect on gastric emptying and stomach weight increase was observed with a CSP vehicle
same,food intake,"Sprague-Dawley rats; rat, in vivo",decreased food intake
same,stomach weight,"Sprague-Dawley rats; rat, in vivo",increased stomach weight
same,stomach weight and food intake,"Sprague-Dawley rats; rat, in vivo",comparable to that of Compound A alone
same,"increase in potency on gastric emptying, subcutaneous as compared to oral administration",Sprague-Dawley rats; s.c. vs p.o.,3-10 fold
same,food intake,"Sprague-Dawley rats; vagotomized and naïve rats, p.o. 100 mg/kg (Example 13)",Food intake is inhibited
same,stomach weight,"Sprague-Dawley rats; vagotomized rats, p.o. 100 mg/kg, 0.5% MC, vs vagotomy alone (Example 13)",not statically significantly different from vagotomy alone
same,% Gastric Emptying in 4 hours,"Sprague-Dawley rats; vagotomized rats, p.o. 100 mg/kg, 0.5% MC, vs vagotomy alone (Example 13), 100 mg/kg",numerically additive effect on the inhibition of gastric emptying but not a statistically significant effect; also recorded: not statically significantly different from vagotomy alone
same,% Gastric Emptying in 4 hours,CD1 mice; [4],inhibit gastric emptying
same,stomach weight,CD1 mice; [4],stomach weight increase
same,% Gastric Emptying in 4 hours,"CD1 mice; s.c. 3 mg/kg, 25% HPBCD vehicle",inhibit gastric emptying
